Structures are written as SMILES. Entries after “also recorded” stand apart in the source; their conditions may differ. Where a name gives a salt, the structure may show the parent alone. Some results are limits rather than exact numbers.

Holding throughout (type): in vivo, C57BL/6J mice
For experiment [1], the system named is nociceptive sensitivity of the mice of the control (“Sham”) group. Briefly: von Frey filament test in control (Sham) mice operated without cuff. The note with it: for Sensitivity of control (Sham) animals under chronic treatment, recapitulation (FIG. 26): chronic treatment (14-21 days), doses and modes as in examples 2, 7, 9 to 14 and 20 (formoterol 0.5 mg/kg, terbutalin 5 mg/kg); for Control (Sham) mice after the first administration: intraperitoneal, first injection; for Nociceptive sensitivity of control (Sham) mice under chronic treatment: repeated injections, doses and modes as for the Cuff mice of the same example.
Protocol: (§1) The experiments were carried out on adult male mice. The pharmacological experiments were carried out using C57BL/6J mice (3-to-6 weeks old on their arrival, Charles River, L'Arbresle, France).
(§2) The model is obtained by placing a polyethylene cuff around the main branch of the right sciatic nerve of each mouse. Before any surgical procedure, the mice were assigned to the various experimental groups in such a way that the baseline mechanical nociception threshold and the weight are equivalent between the various groups. The surgical procedure was carried out under ketamin-xylazin anesthesia (ketamin: 17 mg/ml, xylazin 2.5 mg/ml, intraperitoneal injection in a proportion of 4 ml/kg) (limited liability company Centravet, Taden, France). The common branch of the sciatic nerve was exposed and a section 2 mm long of a hollow PE-20 polyethylene tube (“Harvard Apparatus”, Les Ulis, France) was placed around said branch (“Cuff” group). […] Control mice were operated on according to the same procedure, but without placing the cuff (“Sham” group). The experimental groups are made up of at least 4 mice for each control (“Sham”) group and at least 5 mice for each neuropathic (“Cuff”) group.
(§3) The mice are placed in transparent Plexiglas (registered trademark) boxes (7 cm×9 cm×7 cm) placed on a raised grid. Before the test, the mice are allowed to become accustomed to this device for 15 minutes. During the test, the von Frey filaments are applied to the plantar surface of each back foot according to ascending forces (from 0.16 g up to a foot withdrawal response, or up to a maximum of 10 g). Each filament is tested 5 times per foot and the threshold is defined by the presence of 3 or more withdrawals observed over the 5 tests. Before the surgery as described above, the animals were pretested in order to establish their baseline nociceptive response. During the chronic treatment experiments and those of repeated injection of antagonists, the tests are carried out in the mornings before the first injection of the day. During the acute agonist injection experiments, the tests are carried out after the first injection according to the time course as presented on the graphs.
(§4) For all the treatments carried out by injection, said injections were given intraperitoneally in a volume of 50 microL per 10 mg of body weight.

Experiment [2] deals with mechanical allodynia of the neuropathic (“Cuff”) mice. As to the kind of experiment: Cotreatment with adrenoreceptor antagonists in Cuff mice relieved by chronic nortriptylin or beta-agonist treatment, von Frey test. Conditions: for Effect of coadministered beta2-adrenoreceptor antagonist ICI 118,551 on the allodynia of agonist-treated Cuff mice: ICI 118,551 2 mg/kg intraperitoneal, after 3 weeks of agonist treatment (doses as in chronic treatment; terbutalin 0.5 mg/kg), 3 to 6 days of cotreatment; for Effect of ICI 118,551 on the therapeutic effect of chronic agonist treatment on neuropathic allodynia, summary statement: chronic treatment with the agonist plus beta2-adrenoreceptor antagonist ICI 118,551; for Blocking of the effect of antidepressants on neuropathic allodynia by repeated antagonist treatment, summary statement: doses as in examples 3 to 6.
Protocol: as §2
For the tests, in the examples which follow, the pressure is exerted on the foot of the mice by means of von Frey filaments (Bioseb, Chaville, France) (Benbouzid, M. et al. Biological Psychiatry 63:633-636 (2008) (10) and Benbouzid, M. et al. European Journal of Pain 12:591-599 (2008) (11)). The mice are placed in transparent Plexiglas (registered trademark) boxes (7 cm×9 cm×7 cm) placed on a raised grid. Before the test, the mice are allowed to become accustomed to this device for 15 minutes. During the test, the von Frey filaments are applied to the plantar surface of each back foot according to ascending forces (from 0.16 g up to a foot withdrawal response, or up to a maximum of 10 g). Each filament is tested 5 times per foot and the threshold is defined by the presence of 3 or more withdrawals observed over the 5 tests. Before the surgery as described above, the animals were pretested in order to establish their baseline nociceptive response. During the chronic treatment experiments and those of repeated injection of antagonists, the tests are carried out in the mornings before the first injection of the day. During the acute agonist injection experiments, the tests are carried out after the first injection according to the time course as presented on the graphs.
The procedure for intrathecal (i.t.) injection of the beta2-adrenoreceptor antagonist ICI 118,551 (3 μg in 10 μl) is carried out under halothane gas anesthesia according to the protocol described by Inoue et al. (Nature Medicine 2004, 10:712-718 (12)). These i.t. injections are carried out just before the intraperitoneal injection of salbutamol (2 mg/kg, i.p.). A 27-gauge injection needle connected to a 50 μl Hamilton syringe is inserted, between the L5 and L6 vertebrae, into the subarachnoid space. The correct placement of the needle is verified by the presence of a reflex movement of the tail of the mouse. The mice are pretested before this cotreatment procedure, and then cotreated twice (a morning and the corresponding evening) before being retested the following morning for their mechanical nociceptive sensitivity.

For experiment [3] the test system is unchanged. Briefly: Sciatic nerve cuff murine model of neuropathic pain, von Frey filament test in neuropathic (Cuff) mice. The note with it: for Allodynia in neuropathic (Cuff) animals after chronic treatment, recapitulation (FIG. 25): chronic treatment (14-21 days), doses and modes as in examples 7, 9 to 14 and 20 (formoterol 0.5 mg/kg, terbutalin 5 mg/kg); for Mechanical allodynia of Cuff mice after the first (acute) injection: mice neuropathic for 2 weeks; for Effect on neuropathic allodynia acutely after the first injection, summary statement: first injection of the agonist, doses as in examples 7, 9, 11 and 15.
Protocol: as §1
All the experiments began with mice that were 6-to-9 weeks old. […] For all the other experiments, the mice were combined at four to five per cage and kept under alternating 12-hour day/night (light at 6 am) with food and water ad libitum.
as §2, §3
The surgery for installing the cuff corresponds to day 0.
as §4

[4] abbreviates: 0.5 mg/kg, injection twice a day.
[5] abbreviates: antagonist 2 mg/kg intraperitoneal with nortriptylin 5 mg/kg twice a day, after 3 weeks of nortriptylin (metoprolol, ICI 118,551: for 6 days).
[6] abbreviates: intraperitoneal antagonist, doses as for the Cuff mice of the same example (ICI 118,551 2 mg/kg, yohimbin 2 mg/kg, propranolol 5 mg/kg), with or without cotreatment.

As to `CC(C)NCC(O)c1ccc(O)c(O)c1` (racemic) [isoprenalin, DL-isoproterenol chloride], the “Sensitivity of control (Sham) animals under chronic treatment, recapitulation (FIG. 26)” value (from here on “Sensitivity of control (Sham) animals”) in experiment [1] is listed as “do not affect the control animals; also recorded: does not aspecifically affect the sensitivity of the control animals”. Also, in experiment [2], the “Effect of coadministered beta2-adrenoreceptor antagonist ICI 118,551 on the allodynia of agonist-treated Cuff mice” value (“Effect … of agonist-treated Cuff mice” below) is given as “causes the allodynia to reappear” and the “Effect of ICI 118,551 on the therapeutic effect of chronic agonist treatment on neuropathic allodynia, summary statement” value is given as “blocks the therapeutic effect”. Moreover, in experiment [3] (setting [4]), the “Mechanical allodynia in neuropathic (Cuff) mice after chronic treatment” value (“Mechanical allodynia … after chronic treatment” for short) was “completely suppresses the mechanical allodynia”. Further, the “Allodynia in neuropathic (Cuff) animals after chronic treatment, recapitulation (FIG. 25)” value (“Allodynia in neuropathic (Cuff) animals” for short) in experiment [3] is “relieve this allodynia; also recorded: causes the neuropathic pain, for example the neuropathic allodynia, to completely disappear”.

In the case of `COCCc1ccc(OCC(O)CNC(C)C)cc1` (racemic) [metoprolol, (+/−)-metoprolol (+)-tartrate], the “Effect of antagonist cotreatment on the therapeutic benefit of nortriptylin in Cuff mice” value (from here on “Effect of antagonist cotreatment … in Cuff mice”) in experiment [2] (setting [5]) was “has no influence on the therapeutic benefit”. In addition, in experiment [2], the “Blocking of the effect of antidepressants on neuropathic allodynia by repeated antagonist treatment, summary statement” value (from here on “Blocking”) is listed as “only the beta2-adrenoreceptor antagonist blocks the effect of antidepressants”.

Turning to `CC(C)NCC(O)COc1cccc2ccccc12` (racemic) [propranolol, (+/−)-propranolol hydrochloride], the “Nociceptive sensitivity of control (Sham) mice under antagonist injections” value in experiment [1] (intraperitoneal antagonist, doses as for the Cuff mice of the same example (ICI 118,551 2 mg/kg, yohimbin 2 mg/kg, propranolol 5 mg/kg), with or without cotreatment, hydrochloride) is “not affected; also recorded: does not affect the response of the control animals”. The “Effect of antagonist cotreatment … in Cuff mice” value in experiment [2] (antagonist 5 mg/kg intraperitoneal with nortriptylin 5 mg/kg twice a day, after 3 weeks of nortriptylin) is reported as “causes the allodynia to reappear in a few days”. In addition, the “Blocking” value in experiment [2] was “blocks the therapeutic effect of antidepressants”.

As for `CC(C)NCC(O)c1ccc(NS(C)(=O)=O)cc1.Cl` (racemic) [sotatol, (+/−) sotatol hydrochloride], the “Effect of antagonist cotreatment with nortriptylin, compared with propranolol” value in experiment [2] (2 mg/kg in place of propranolol 5 mg/kg, same results = as propranolol (allodynia reappears in Cuff, Sham not affected)) is listed as “same results”.

On to `Cc1ccc(OCC(O)C(C)NC(C)C)c2c1CCC2` (stereo not shown) [ICI 118,551], for which the “Nociceptive sensitivity of control (Sham) mice under antagonist injections” value in experiment [1] (ICI 118,551 intraperitoneal (2 mg/kg) or intrathecal (3 μg in 10 μl), with salbutamol) is given as “not affected”; in experiment [1] (setting [6]), “not affected; also recorded: does not affect the response of the control animals”. For the same compound, the “Time to reappearance of allodynia after the beginning of the cotreatment with nortriptylin” value in experiment [2] (ICI 118,551 2 mg/kg intraperitoneal coadministered with nortriptylin, Cuff mice) was no more than 48 h. Moreover, the “Effect of antagonist cotreatment … in Cuff mice” value in experiment [2] (setting [5]) is recorded as “leads to reappearance of the neuropathic allodynia”. Besides, in experiment [2], the “Blocking” value was “blocks the effect of antidepressants”.

For `CCc1ccccc1OC[C@@H](O)CN[C@H]1CCCc2ccccc21` [SR59230A], the “Effect of antagonist cotreatment … in Cuff mice” value in experiment [2] (antagonist 2.5 mg/kg intraperitoneal for 6 days with nortriptylin, after 3 weeks of nortriptylin) is “has no influence on the therapeutic benefit”. The “Blocking” value in experiment [2] is “only the beta2-adrenoreceptor antagonist blocks the effect of antidepressants”.

In the case of `CC(C)NCC(O)COc1ccc(CC(N)=O)cc1` (stereo not shown) [atenolol], the “Effect of antagonist cotreatment with nortriptylin, compared with metoprolol” value in experiment [2] (5 mg/kg in place of metoprolol 2 mg/kg, same results = as metoprolol (no influence on the therapeutic benefit)) is “same results”.

Consider `CN(C)C(=O)Oc1cc(OC(=O)N(C)C)cc(C(O)CNC(C)(C)C)c1` (stereo not shown) [bambuterol], for which the “Control (Sham) mice after the first administration” value in experiment [1] (bambuterol 0.5 mg/kg) is on record as “unaffected”. In experiment [1], the “Sensitivity of control (Sham) animals” value is “do not affect the control animals; also recorded: does not aspecifically affect the sensitivity of the control animals” and the “Nociceptive sensitivity of control (Sham) mice under chronic treatment” value was “not affected”. Moreover, in experiment [2], the “Effect … of agonist-treated Cuff mice” value was “causes the allodynia to reappear” and the “Effect of ICI 118,551 on the therapeutic effect of chronic agonist treatment on neuropathic allodynia, summary statement” value is listed as “blocks the therapeutic effect”. In experiment [3] (setting [4]), the “Mechanical allodynia … after chronic treatment” value was “completely suppresses the mechanical allodynia”. In experiment [3] (0.5 mg/kg, intraperitoneal), the “Mechanical allodynia of Cuff mice after the first (acute) injection” value (shortened to “Mechanical allodynia of Cuff mice”) is reported as “has no anti-allodynia effect”. Moreover, in experiment [3], the “Allodynia in neuropathic (Cuff) animals” value is on record as “relieve this allodynia; also recorded: causes the neuropathic pain, for example the neuropathic allodynia, to completely disappear” and the “Effect on neuropathic allodynia acutely after the first injection, summary statement” value (shortened to “Effect on neuropathic allodynia acutely”) is given as “not observed acutely after the first injection”.

As for `CC(C)(C)NCC(O)c1cc(Cl)c(N)c(Cl)c1` (stereo not shown) [clenbuterol], in experiment [1], the “Sensitivity of control (Sham) animals” value is on record as “do not affect the control animals; also recorded: does not aspecifically affect the sensitivity of the control animals” and the “Nociceptive sensitivity of control (Sham) mice under chronic treatment” value was “not affected”. The “Control (Sham) mice after the first administration” value in experiment [1] (clenbuterol 0.3 mg/kg) is given as “unaffected”. Further, in experiment [2], the “Effect … of agonist-treated Cuff mice” value was “causes the allodynia to reappear” and the “Effect of ICI 118,551 on the therapeutic effect of chronic agonist treatment on neuropathic allodynia, summary statement” value is “blocks the therapeutic effect”. Also, the “Mechanical allodynia of Cuff mice” value in experiment [3] (0.3 mg/kg, intraperitoneal) was “has no effect on the mechanical allodynia”. In experiment [3] (0.3 mg/kg, intraperitoneal, twice a day), the “Mechanical allodynia … after chronic treatment” value was “completely suppresses the mechanical allodynia”. In addition, in experiment [3], the “Allodynia in neuropathic (Cuff) animals” value is given as “relieve this allodynia; also recorded: causes the neuropathic pain, for example the neuropathic allodynia, to completely disappear” and the “Effect on neuropathic allodynia acutely” value is “not observed acutely after the first injection”.

As to `CC(Cc1ccc(O)cc1)NCC(O)c1cc(O)cc(O)c1` (stereo not shown) [fenoterol], in experiment [1], the “Sensitivity of control (Sham) animals” value is “do not affect the control animals; also recorded: does not aspecifically affect the sensitivity of the control animals” and the “Nociceptive sensitivity of control (Sham) mice under chronic treatment” value is “not affected”. In addition, in experiment [2], the “Effect … of agonist-treated Cuff mice” value is recorded as “causes the allodynia to reappear” and the “Effect of ICI 118,551 on the therapeutic effect of chronic agonist treatment on neuropathic allodynia, summary statement” value is recorded as “blocks the therapeutic effect”. Also, the “Mechanical allodynia of Cuff mice” value in experiment [3] (0.7 mg/kg, intraperitoneal) is on record as “has no effect on the mechanical allodynia”. In addition, the “Mechanical allodynia … after chronic treatment” value in experiment [3] (0.7 mg/kg, twice a day) was “completely suppresses the mechanical allodynia”. In experiment [3], the “Allodynia in neuropathic (Cuff) animals” value was “relieve this allodynia; also recorded: causes the neuropathic pain, for example the neuropathic allodynia, to completely disappear” and the “Effect on neuropathic allodynia acutely” value is “not observed acutely after the first injection”.

As to `CC(C)NCC(O)c1cc(O)cc(O)c1` (stereo not shown) [metaproterenol], the “Sensitivity of control (Sham) animals” value in experiment [1] is “do not affect the control animals; also recorded: does not aspecifically affect the sensitivity of the control animals”. Moreover, the “Mechanical allodynia … after chronic treatment” value in experiment [3] (1 mg/kg, injection twice a day) is on record as “completely suppresses the mechanical allodynia”. For the same compound, the “Mechanical allodynia in neuropathic (Cuff) mice after chronic application of a gel to the skin” value in experiment [3] (0.1 ml of gel twice a day, 1 mg/ml metaproterenol hemisulfate in 5% hydroxyethylcellulose gel, from 8 days after surgery) is recorded as “relieves the mechanical allodynia; also recorded: relieves neuropathic allodynia”. In experiment [3], the “Allodynia in neuropathic (Cuff) animals” value is given as “relieve this allodynia; also recorded: causes the neuropathic pain, for example the neuropathic allodynia, to completely disappear”.

On to `COC(=O)[C@@H]1[C@H]2C[C@H]3c4[nH]c5ccccc5c4CCN3C[C@@H]2CC[C@@H]1O` [yohimbin], for which, in experiment [1] (setting [6]), the “Nociceptive sensitivity of control (Sham) mice under antagonist injections” value is listed as “not affected”. The “Effect of antagonist cotreatment … in Cuff mice” value in experiment [2] (setting [5]) is listed as “has no influence on the therapeutic benefit”. Also, the “Blocking” value in experiment [2] is reported as “ineffective in blocking the analgesic effect of antidepressants”.

Values taken from patent US20110027352A1, “COMPOUNDS FOR USE IN THE TREATMENT OF NEUROPATHIC PAIN” (priority 2008, published 2011).
